Reference: paper PMC8438664 (ACS Infectious Diseases, 2021)

How the values were obtained:
[1] = lipid II of VanA or VanB positive strains; cited from earlier work
[2] = tested on: conditionally immortalized proximal tubule epithelial cells (ciPTECs) overexpressing OAT-1; assay: ciPTEC cell viability assay; type: cell-based, human; conditions: 24 h, relative mitochondrial activity (PrestoBlue)

CN[C@H](CC(C)C)C(=O)N[C@H]1C(=O)N[C@@H](CC(N)=O)C(=O)N[C@H]2C(=O)N[C@H]3C(=O)N[C@H](C(=O)N[C@H](C(=O)O)c4cc(O)cc(O)c4-c4cc3ccc4O)[C@H](O)c3ccc(c(Cl)c3)Oc3cc2cc(c3O[C@@H]2O[C@H](CO)[C@@H](O)[C@H](O)[C@H]2O[C@H]2C[C@](C)(N)[C@H](O)[C@H](C)O2)Oc2ccc(cc2Cl)[C@H]1O [Vancomycin]
fold reduction in binding affinity on mutation of D-Ala-D-Ala to D-Ala-D-Lac [1]: > 1000 fold
viability at a concentration of 1 mM [2]: > 50%
